To fix the notation:
B1: T25454: A. palmeri OEP80 trigger dsRNA polynucleotide, SEQ ID NO: 1544 (nucleic acid, listed as Amaranthus palmeri)
chain: GATACTAGGGATGGTATTAGATTGGTCTTTCAGGTAGAACCAAACCAGGAGTTTAGAGGACTGGTGTGC
modifications: double-stranded RNA trigger, chemistry not given here, further chemistry not given here
B2: T25472: A. palmeri OEP80 trigger dsRNA polynucleotide, SEQ ID NO: 1562 (nucleic acid, listed as Amaranthus palmeri)
chain: GTCATAAAAGATTTCTACAACAGCGCTCTTACGGCAAGTGGGAATACTCATGATAATATGC
modifications: double-stranded RNA trigger, chemistry not given here, further chemistry not given here

The data set deals with Amaranthus palmeri plants (R22 glyphosate resistant biotype). Nature of the data set: OEP80 trigger dsRNA polynucleotides followed by 2X WMAX, injury rating (FIG. 1). It is filed as in vivo. Particulars: 8 nmol/plant, 0.5-1.0 percent Silwet L-77 and buffer, 2X WMAX one day later; rated 14 days after WMAX; baseline 40 percent. As for the experimental part: FIG. 1. Treatment of Amaranthus palmeri with dsRNA trigger polynucleotides targeting OEP80.
The following procedure is used for all assays described in this example. Approximately four-week old Amaranthus palmeri plants (glyphosate-resistant Palmer amaranth, “R-22”) are used in this assay. Plants are treated with 0.5-1.0 percent Silwet L-77 solution freshly made with ddH2O. Two fully expanded leaves per plant (one cotyledon, one true leaf) are treated with the polynucleotide/Silwet L-77 solution. Final concentration for each dsRNA polynucleotide was 25 microM) unless otherwise stated. Twenty microliters of the solution are applied to the top surface of each of the two pre-treated leaves to provide a total of 40 microliters (1-4 nmol polynucleotide) for each plant.
Spray solutions are prepared the same day as spraying. Single oligonucleotide molecules are applied at rates between 0.04 and 0.18 mg/ml in 20 mM potassium phosphate buffer (pH 6.8) are added to spray solutions 15 to 50 minutes before spraying. One-to-two-ml spray solutions were applied using a custom low-dead-volume sprayer (“milli applicator”) at 8-30 gpa (gallons per acre) to one-to-four inch tall plants. Treated plants are place in a greenhouse set for either a 26.7/21.1° C. or 29.4/21.1° C. 14/10 hour temperature and supplemental light schedule. The amount of response relative to unsprayed treatments is collected at various time intervals up to 21 days after treatment.
A common spray nozzle used for all applications made with the track sprayer is the Turbo Teejet air induction nozzle (015) nozzle with air pressure set at a minimum of 20 psi (pounds per square inch or […]). This style nozzle is currently being utilized to lessen shear forces that can damage or otherwise change large macromolecules that can seen with other nozzle styles. The height of the spray nozzle is to be 16-18 inches above top of plant material. Treatments are to be made when plants reach the desired size, height or leaf stage.
Application rates are chosen so as to achieve percent control ratings in the range of 50 percent at the lowest rate to 90 percent control at the highest rate. The rates in this control range provide the best possible efficacy comparisons among formulations, allowing separation of relative performance of test samples. The rate of herbicide used in these studies is typically at the manufacturer's recommended use rate. On occasion lower or higher rates may be necessary depending on test objectives. The rate structure used for a given test will be dependent on the environmental conditions at the time of spray application (time of year), the plant species being treated (highly susceptible or tough to kill) and age (or size) of plants to be treated.
Amaranthus palmeri plants (R22 glyphosate resistant biotype) were treated following the protocol described in Example 3. Trigger dsRNA polynucleotides shown in Table 5 (SEQ ID NO: 1535-1573, plus strand sequence illustrated) are targeting the A. palmeri OEP80 gene coding region (SEQ ID NO: 365). The polynucleotides were topically applied at 8 nmol/plant in a composition comprising 0.5-1.0 percent Silwet L-77 and buffer followed one day later by treatment with 2× WeatherMAX (WMAX). Injury rating of the treated plants was conducted 14 days after the WMAX treatment. The control treatments were buffer alone and 2 rates (4 nmol and 8 nmol) of a trigger polynucleotide (oligo 5.3) targeting the A. palmeri EPSPS coding gene sequence. The average baseline level of injury effect of buffer plus WMAX was set at 40 percent for this experiment. […] Additionally, 4 regions of the target gene sequence were identified in which the polynucleotides in those regions were particularly effective, these regions are between nucleotide positions 369-701, 1016-1168, 1364-1622 and 1683-1792 of SEQ ID NO: 365.
For “T25477: A. palmeri OEP80 trigger dsRNA polynucleotide, SEQ ID NO: 1567 (GTTTGCGATCGGTGGTACAAATAGTGTGAGAGGATATGAAGAAGGTGCCGTTGGC; double-stranded RNA trigger, chemistry not given here, further chemistry not given here; listed as Amaranthus palmeri) [Oligo T25477]”, the “Injury rating: enhancement of the effect of WMAX (FIG. 1)” value (from here on “Injury rating: enhancement”) is “able to enhance the effect of WMAX”.
In the case of “T29213: A. palmeri OEP80 trigger dsRNA polynucleotide, SEQ ID NO: 1573 (GGATATGAAGAAGGTGCCGTTGGC; double-stranded RNA trigger, chemistry not given here, further chemistry not given here; listed as Amaranthus palmeri) [Oligo T29213]” it was “able to enhance the effect of WMAX”; in that of “T25464: A. palmeri OEP80 trigger dsRNA polynucleotide, SEQ ID NO: 1554 (GTTTCTCGGCTGGTGGTGGTATTTCGAGCGGGATAACGAGCGGACCGC; double-stranded RNA trigger, chemistry not given here, further chemistry not given here; listed as Amaranthus palmeri) [Oligo T25464]”, “able to enhance the effect of WMAX”; in that of “T25456: A. palmeri OEP80 trigger dsRNA polynucleotide, SEQ ID NO: 1546 (GTGATGGATATGGGAAAGTGGTCAATATCAGGCGTTTGGATGAAGTGATTGATTC; double-stranded RNA trigger, chemistry not given here, further chemistry not given here; listed as Amaranthus palmeri) [Oligo T25456]”, “able to enhance the effect of WMAX”.
Regarding “T25471: A. palmeri OEP80 trigger dsRNA polynucleotide, SEQ ID NO: 1561 (GACTTACGTTTCAGCATGCTGGTGTCCGTGATGAAAAAGGGAACCCCGTC; double-stranded RNA trigger, chemistry not given here, further chemistry not given here; listed as Amaranthus palmeri) [Oligo T25471]”, the “Injury rating: enhancement” value is listed as “able to enhance the effect of WMAX”.
For “T25473: A. palmeri OEP80 trigger dsRNA polynucleotide, SEQ ID NO: 1563 (GCTGCTTGCCAAAGGCGAGTGTGCCTACACGGGTGACTTAGGATCCTCAATGTTAGTC; double-stranded RNA trigger, chemistry not given here, further chemistry not given here; listed as Amaranthus palmeri) [Oligo T25473]”, the “Injury rating: enhancement” value is on record as “able to enhance the effect of WMAX”.
“T25475: A. palmeri OEP80 trigger dsRNA polynucleotide, SEQ ID NO: 1565 (GTTTTAATCGAGTCAACGCTCGTGCTAGGTCAGGGGTGGACATTGGTCCAGC; double-stranded RNA trigger, chemistry not given here, further chemistry not given here; listed as Amaranthus palmeri) [Oligo T25475]”: the “Injury rating: enhancement” value is on record as “able to enhance the effect of WMAX”.
Regarding “T25452: A. palmeri OEP80 trigger dsRNA polynucleotide, SEQ ID NO: 1542 (GGAGGCATTAATGGCATTGAAAGCTTGCCGGGCGAATTCAGCTTTGACTGTGC; double-stranded RNA trigger, chemistry not given here, further chemistry not given here; listed as Amaranthus palmeri) [Oligo T25452]”, the “Injury rating: enhancement” value was “able to enhance the effect of WMAX”.
For “T25455: A. palmeri OEP80 trigger dsRNA polynucleotide, SEQ ID NO: 1545 (GCGAAGGAGCTAATGTTCTCCCTTCCAAGTTTGTAGAGGATTCATTTC; double-stranded RNA trigger, chemistry not given here, further chemistry not given here; listed as Amaranthus palmeri) [Oligo T25455]” the value was “able to enhance the effect of WMAX”; for “T25457: A. palmeri OEP80 trigger dsRNA polynucleotide, SEQ ID NO: 1547 (GATTCTATAAATGGATGGTACATGGAGCGTGGTCTTTTTGGCATGGTTTC; double-stranded RNA trigger, chemistry not given here, further chemistry not given here; listed as Amaranthus palmeri) [Oligo T25457]”, “able to enhance the effect of WMAX”.
For “T25465: A. palmeri OEP80 trigger dsRNA polynucleotide, SEQ ID NO: 1555 (GCTATCAGGTTTAATTGGAAGCTTTGCATATTCTCACAGGAATCTGTTTGGAAAAAATC; double-stranded RNA trigger, chemistry not given here, further chemistry not given here; listed as Amaranthus palmeri) [Oligo T25465]” the value was “able to enhance the effect of WMAX”; for “T25474: A. palmeri OEP80 trigger dsRNA polynucleotide, SEQ ID NO: 1564 (GTCTTAAGCATGGAACAAGGTCTTCCTATCTATCCTGAGTGGCTGTGTTTTAATC; double-stranded RNA trigger, chemistry not given here, further chemistry not given here; listed as Amaranthus palmeri) [Oligo T25474]”, “able to enhance the effect of WMAX”; for “T25478: A. palmeri OEP80 trigger dsRNA polynucleotide, SEQ ID NO: 1568 (GCTCAGGCCTTTCATACGTAGTGGGCTGTGGAGAAGTTTCCTTCCCTCTGTATGGTC; double-stranded RNA trigger, chemistry not given here, further chemistry not given here; listed as Amaranthus palmeri) [Oligo T25478]”, “able to enhance the effect of WMAX”.
On to “T25466: A. palmeri OEP80 trigger dsRNA polynucleotide, SEQ ID NO: 1556 (GAAAAAATCAAAAAGTAAATGTCTCTCTTGAAAGAGGCCAAATCGACTCTATCTTCC; double-stranded RNA trigger, chemistry not given here, further chemistry not given here; listed as Amaranthus palmeri) [Oligo T25466]”, for which the “Injury rating: enhancement” value is “able to enhance the effect of WMAX”.
Regarding B1, the “Injury rating: enhancement” value is given as “able to enhance the effect of WMAX”.
For B2 the value was “able to enhance the effect of WMAX”.

These data come from patent US10568328B2, “Methods and compositions for weed control” (Monsanto Technology LLC, priority 2013, dated 2020).
